Test results taken from patent US5143839A, “Assay of endopeptidases and novel purified bacterial enzyme” (Ramot Ltd., priority 1989, dated 1992).
Starred links: 1 amine or outer side, 2 acyl side, 3 side chain; linkers in the order of their positions; H or OH if unused. Residues, ends and D or L forms follow the SMILES beside them. *: point of attachment. pNA = O=[N+]([O-])c1ccc(N*)cc1; Suc = O=C(CCC(=O)[*:2])[*:1]

Tests used:
[1] = test system: Human neutrophils; assay: Hydrolysis of the substrate by human neutrophils; type: cell-based; conditions: substrate 0.4 mM, pH 7.5; neutrophils from a healthy donor, 5×10^5 cells/ml
Protocol: (§1) Neutral endopeptidase and neutral proteinase activities were assayed by the two-stage assay using the synthetic substrate Suc-Ala-Ala-Leu-NH-Np supplemented with Streptomyces griseus aminopeptidase, usually 6-7 μg/ml. Assays were performed in 0.1M NaCl-0.05M Tris.HCl, pH 7.5 at 25° C., unless otherwise stated, with or without 0.01M CaCl2. Assay volume was 1 ml or 2.5 ml when using a Varian Techtron spectrophotometer or 0.2 ml at 23° C. when performed with microplates (Munc Immuno Plate II F) using a Kinetic Microplate Reader (Molecular Devices Corp.). Activity was measured by following the increase in absorbance at 405 nm, due to the release of 4-nitroaniline, E405 =10,600M^-1 cm^-1 [14 ]. Molar concentration of thermolysin was estimated using A280 1% =17.65 [15] and molecular mass of 34,600 Da; molar concentration of bovine kidney neutral endopeptidase by protein determination and molecular mass of 90 kDa, deduced from SDS PAGE. Both endopeptidase 24.11 from bovine kidney and thermolysin cleave the Ala-Leu bond of the compound at a very fast rate (Table 3). The Leu residue of the substrate interacts with the major hydrophobic specificity sites of the enzymes (S'1), whereas the two Ala residues interact with additional subsites (S1, S2), thereby contributing to catalysis and/or binding. Even the 4-nitroaniline leaving group probably interacts with the enzyme at subsite S'2. […]

[2] = molecular target: T1, Endopeptidase 24.11 from bovine kidney (Bos taurus, UniProt E1BPL8); assay: Two-stage assay with Suc-Ala-Ala-Leu-NH-Np plus S. griseus aminopeptidase: inhibition by phosphoramidon; type: biochemical
T1 construct: Endopeptidase 24.11 from bovine kidney was purified by Triton X-100 extraction; from tissue; host or cells: bovine kidney
T1 sequence (E1BPL8 1-750): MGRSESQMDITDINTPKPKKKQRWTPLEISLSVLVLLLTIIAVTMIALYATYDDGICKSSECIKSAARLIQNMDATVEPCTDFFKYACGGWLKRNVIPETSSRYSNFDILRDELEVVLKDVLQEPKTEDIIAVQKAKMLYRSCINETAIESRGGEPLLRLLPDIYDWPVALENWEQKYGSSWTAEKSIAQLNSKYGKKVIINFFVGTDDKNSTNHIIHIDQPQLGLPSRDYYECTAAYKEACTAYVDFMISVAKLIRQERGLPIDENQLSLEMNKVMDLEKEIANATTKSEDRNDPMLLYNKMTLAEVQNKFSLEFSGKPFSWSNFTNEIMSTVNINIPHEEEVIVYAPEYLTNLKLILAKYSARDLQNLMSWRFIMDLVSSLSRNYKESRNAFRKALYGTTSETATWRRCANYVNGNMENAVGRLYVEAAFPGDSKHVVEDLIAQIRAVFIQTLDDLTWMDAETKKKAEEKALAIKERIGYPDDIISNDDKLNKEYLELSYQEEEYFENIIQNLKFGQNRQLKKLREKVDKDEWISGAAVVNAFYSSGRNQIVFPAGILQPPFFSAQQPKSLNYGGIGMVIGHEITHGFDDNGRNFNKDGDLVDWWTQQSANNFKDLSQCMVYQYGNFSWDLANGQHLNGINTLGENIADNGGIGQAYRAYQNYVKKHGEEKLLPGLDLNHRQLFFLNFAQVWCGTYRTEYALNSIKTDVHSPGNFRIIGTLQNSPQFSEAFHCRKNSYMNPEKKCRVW
Protocol: (§2) Neutral endopeptidase and neutral proteinase activities were assayed by the two-stage assay using the synthetic substrate Suc-Ala-Ala-Leu-NH-Np supplemented with Streptomyces griseus aminopeptidase, usually 6-7 μg/ml. Assays were performed in 0.1M NaCl-0.05M Tris.HCl, pH 7.5 at 25° C., unless otherwise stated, with or without 0.01M CaCl2. Assay volume was 1 ml or 2.5 ml when using a Varian Techtron spectrophotometer or 0.2 ml at 23° C. when performed with microplates (Munc Immuno Plate II F) using a Kinetic Microplate Reader (Molecular Devices Corp.). Activity was measured by following the increase in absorbance at 405 nm, due to the release of 4-nitroaniline, E405 =10,600M^-1 cm^-1 [14 ]. Molar concentration of thermolysin was estimated using A280 1% =17.65 [15] and molecular mass of 34,600 Da; molar concentration of bovine kidney neutral endopeptidase by protein determination and molecular mass of 90 kDa, deduced from SDS PAGE. Both endopeptidase 24.11 from bovine kidney and thermolysin cleave the Ala-Leu bond of the compound at a very fast rate (Table 3). The Leu residue of the substrate interacts with the major hydrophobic specificity sites of the enzymes (S'1), whereas the two Ala residues interact with additional subsites (S1, S2), thereby contributing to catalysis and/or binding. Even the 4-nitroaniline leaving group probably interacts with the enzyme at subsite S'2. Previously reported assays of endopeptidase 24.11 usually utilized a hydrophobic Phe residue, but Leu seems preferable in reaching higher kcat values. The rapid hydrolysis of the Leu residue is also preferable for the present two-stage assay utilizing Steptomyces aminopeptidase, since this enzyme very rapidly hydrolyzes the product of the endopeptidase attack, Leu-NH-Np. The rapid hydrolysis coupled with Km values in the 1 mM range and overall kcat /Km values in the 10^6 M^-1 s^-1 range (Table 3), render the substrate most suitable for detailed kinetic investigations of the enzymes and for detection of the 24.11 and 24.4 classes of enzymes in mammalian tissues and in bacterial extracellular fluids, respectively.
(§3) Like other previously reported substrates for endopeptidase 24.11, the substrate employed may, in principle, be hydrolyzed by chymotrypsin-like enzymes. To assess the contribution of the neutral endopeptidases and neutral proteinases 1 the observed color development, the specific inhibitor of these classes of enzymes phosphoramidon was added (Table 4).
(§4) Inhibition was measured at pH 7.5, 25° C., in the presence of 10 mM CaCl2 except for the neutrophils that were assayed at 37° C. and in the absence of added Ca^2+. The substrate Suc-Ala-Ala-Leu-NH-Npat 0.4 mM was used. […]

[3] = molecular target: T2, Thermolysin (Bacillus thermoproteolyticus, UniProt P00800); assay: as above; type: biochemical
T2 sequence (P00800 233-548): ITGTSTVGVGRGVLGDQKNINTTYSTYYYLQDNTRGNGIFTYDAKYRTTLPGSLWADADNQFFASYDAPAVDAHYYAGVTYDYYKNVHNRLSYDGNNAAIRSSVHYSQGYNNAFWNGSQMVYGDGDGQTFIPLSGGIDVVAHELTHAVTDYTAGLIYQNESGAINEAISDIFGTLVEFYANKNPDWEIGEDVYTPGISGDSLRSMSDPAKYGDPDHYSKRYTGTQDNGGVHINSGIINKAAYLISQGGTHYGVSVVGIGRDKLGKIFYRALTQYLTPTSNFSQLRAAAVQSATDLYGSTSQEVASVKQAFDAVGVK
Protocol: as §2, §3, §4

[4] = test system: Human neutrophils; assay: Two-stage assay on intact cells: inhibition by phosphoramidon; type: cell-based
Protocol: as §1, with “3).” for “3). The Leu residue of the substrate interacts with the major hydrophobic specificity sites of the enzymes (S'1), whereas the two Ala residues interact with additional subsites (S1, S2), thereby contributing to catalysis and/or binding. Even the 4-nitroaniline leaving group probably interacts with the enzyme at subsite S'2.”
(§5) Inhibition was measured at pH 7.5, 25° C., in the presence of 10 mM CaCl2 except for the neutrophils that were assayed at 37° C. and in the absence of added Ca^2+. […]

[5] = molecular target: T3, B. cereus culture (Bacillus cereus, UniProt P05806); assay: Two-stage assay on bacterial culture filtrate: inhibition by phosphoramidon; type: biochemical
T3 construct: B. cereus culture filtrate, 5 μl/ml substrate; endogenous in cells; host or cells: Bacillus cereus X-3 DSM 3101 culture filtrate
Protocol: Bacillus cereus (X-3 DSM 3101, German Collection of Microorganisms, Braunschweig, FRG) containing the neural proteinase were obtained by overnight cultivation in a rich medium supplemented with calcium chloride.
as §1, with “PAGE.” for “PAGE. Both endopeptidase 24.11 from bovine kidney and thermolysin cleave the Ala-Leu bond of the compound at a very fast rate (Table 3). The Leu residue of the substrate interacts with the major hydrophobic specificity sites of the enzymes (S'1), whereas the two Ala residues interact with additional subsites (S1, S2), thereby contributing to catalysis and/or binding. Even the 4-nitroaniline leaving group probably interacts with the enzyme at subsite S'2.”
as §5

T3 sequence (P05806 250-566): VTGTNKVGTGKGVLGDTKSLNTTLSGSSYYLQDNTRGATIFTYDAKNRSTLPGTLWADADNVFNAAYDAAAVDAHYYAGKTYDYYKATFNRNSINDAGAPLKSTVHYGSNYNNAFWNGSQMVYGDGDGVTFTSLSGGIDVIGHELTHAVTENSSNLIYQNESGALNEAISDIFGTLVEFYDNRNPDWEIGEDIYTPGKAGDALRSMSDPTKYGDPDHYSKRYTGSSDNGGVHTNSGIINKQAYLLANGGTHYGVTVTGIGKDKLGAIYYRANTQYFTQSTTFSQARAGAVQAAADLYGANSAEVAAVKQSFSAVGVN

Row | Compound | rate of substrate hydrolysis [1] | inhibition at 3.6 µM ([2]; phosphoramidon 3.6 μM, pH 7.5, 25° C., 10 mM CaCl2, substrate 0.4 mM, enzyme 2.2×10^-9 M) | effect of inhibitor on activity ([2]; purified enzyme) | inhibition at 18 µM ([3]; phosphoramidon 18.0 μM, pH 7.5, 25° C., 10 mM CaCl2, substrate 0.4 mM, enzyme 1.5×10^-9 M) | effect of inhibitor on activity ([3]; purified enzyme) | inhibition at 3.6 µM ([4]; Homo sapiens, Neutrophil, phosphoramidon 3.6 μM, pH 7.5, 37° C., no added Ca2+, substrate 0.4 mM, 5×10^5 cells/ml) | effect of inhibitor on enzymatic reaction ([4]; intact neutrophils) | effect of inhibitor on enzymatic reaction ([5]; bacterial culture) | inhibition at 18 µM ([5]; phosphoramidon 18.0 μM, pH 7.5, 25° C., 10 mM CaCl2, substrate 0.4 mM, culture filtrate 5 μl/ml substrate)
1 | CC(C)C[C@H](NC(=O)[C@H](C)NC(=O)[C@H](C)NC(=O)CCC(=O)O)C(=O)Nc1ccc([N+](=O)[O-])cc1 [Suc-Ala-Ala-Leu-NH-Np] (Suc-Ala-Ala-Leu-pNA) | ~ 1.3 nmoles/min/10^6 cells | – | – | – | – | – | – | – | –
2 | CC(C)C[C@H](NP(=O)(O)O[C@@H]1O[C@@H](C)[C@H](O)[C@@H](O)[C@H]1O)C(=O)N[C@@H](Cc1c[nH]c2ccccc12)C(=O)O [phosphoramidon] | – | > 99% | completely abolishes the activity | > 99% | completely abolishes the activity | > 95% | strongly inhibits | strongly inhibits | ~95%
